From patent US10351525B2, “Beta lactamase inhibitors” (Oxford University Innovation Limited, priority 2014, dated 2019)

Columns and labels:
Format in all cases: biochemical
IMP-1 = target: T1, IMP-1 (Serratia marcescens, UniProt P52699); assay: MBL screening assay (IC50), IMP-1
T1 construct: made in house; host or cells: Escherichia coli
Protocol: Recombinant forms of NDM-1, NDM-1 M67C, VIM-1, VIM-2, SPM-1, IMP-1 and BcII MBLs were produced in Escherichia coli as described in J. Med. Chem. 56, 6945-6953 (2013) and Makena et al Chem MechCHem 8, 1923-9 (2013). Purified VIM-2 protein was dialysed into fresh crystallization buffer (50 mM HEPES pH 7.5, 150 mM NaCl and […], concentrated to 7.5 mg/mL and used for crystallographic analyses.
Kinetic and inhibition analyses and UV-VIS studies^16 against bacterial MBLs were performed as described by Van Berkel et al in J. Med. Chem. 56, 6945-6953 (2013) and Makena et al Chem MechCHem 8, 1923-9 (2013).
The experiments were performed by using a NovaStar microplate reader (using path length correction) and were performed at r.t. (24-25° C.). All enzymes and substrates were dissolved in the assay buffer: 50 mM HEPES-NaOH buffer (pH 7.2) supplemented with 1 μg/mL BSA (to minimize the denaturation of the enzyme), 1 μM ZnSO4 and 0.01% Triton 100. Screening was carried out against a panel of MBLs including NDM-1, VIM-1, VIM-2, SPM-1 (Sao Paulo MBL-1) and IMP-1 and the non-clinically relevant model MBL Bacillus cereus (BcII).
The kinetic values determined were the means from at least three independent measurements. […] The IC50 values were determined from the plot of activity (steady state rate) versus inhibitor concentration using the same software. […]

TEM-1 = TEM-1 (Escherichia coli, UniProt P62593); assay: Inhibition studies TEM-1; conditions: for Inhibition verdict: TEM-1, 100 μM; for remaining activity at 100 µM: read-out: RA (residual activity); on Inhibition verdict: key: N.I.—not inhibited
Protocol: (§1) To investigate the selectivity of ML302/ML302F for bacterial MBLs, activity was tested against TEM-1 (a Class A SBL), PBP-5 (penicillin-binding protein 5 or dacA) and PBP-6 (penicillin-binding protein 6, or dacC) from E. coli, hHAT (human histone acetyltransferase) and hHDAC (human histone deacetylase). TEM-1, PBP-5 and -6 and hHAT are known to be inhibited by rhodanines. Selectively against hACE-2 (Angiotensin converting enzyme 2) and hHAGH (Hydroxyacylglutathione hydrolase, human Glyoxylase II) was also tested.
The inhibition analysis for TEM-1 was performed using the modified method that was previously described for MBLs.21 In brief: ML302 and ML302F were screened at a single concentration (100 μM) in duplicate. Inhibition was tested by pre-incubation of the appropriate amount of TEM-1 (1 nM final concentration) and ML302 or ML302F in the assay buffer (50 mM HEPES-NaOH buffer (pH 7.2) supplemented with 0.01% Triton 100) for 10 min. at r.t. prior to the initiation of the assay by the addition of FC5 ((6R,7R)-8-Oxo-3-(((2-oxo-2H-chromen-7-yl)oxy)methyl)-7-(2-phenylacetamido)-5-thia-1-azabicyclo[4.2.0]oct-2-ene-2-carboxylic acid 5,5-dioxide)21 (10 μM final concentration). The hydrolysis of FC5 was monitored by following the variation on fluorescence reading (380 nm—excitation and 460 nm—emission) using 384 well flat bottom plates (Greiner Bio-One). The experiments were performed on a PHERAstar FS-BMG Labtech microplate reader at r.t. (24-25° C.). All enzymes and inhibitors were prepared in the assay buffer.

PBP6 (dacC) from E. coli = PBP6 (dacC) from E. coli (Escherichia coli, UniProt P08506); assay: Inhibition studies for penicillin binding proteins, PBP6; conditions: for Inhibition verdict: 100 μM; for remaining activity at 100 µM: read-out: RA (residual activity); on Inhibition verdict: key: N.I.—not inhibited
Protocol: as §1
The inhibition analyses were performed using the method previously described for PBP-3 (van Berkel, S. S. et al. Binding of (5 S)-penicilloic acid to penicillin binding protein 3.ACS Chem. Biol. 8, 2112-2116 (2013)). In brief: ML302 and ML302F were initially screened at a single concentration (100 μM) in duplicate. Inhibition of the PBP acylation rate by the chromogenic β-lactam Nitrocefin was determined by pre-incubation of the appropriate amount of enzyme (dacA 2 μM and dacC 6.8 μM, respectively) and inhibitor in the assay buffer (50 mM HEPES-NaOH buffer (pH 7.2) supplemented with 200 mM NaCl and 0.01% Triton 100) for 10 min. at r.t. prior to the initiation of the assay by the addition of nitrocefin (100 μM final concentration). The hydrolysis of Nitrocefin was monitored by following the variation in absorbance at 492 nm using 96 well flat bottom plates (UV-STAR Microplate (655801) or Greiner Bio-One). The experiments were performed using a PHERAstar FS—BMG Labtech microplate reader (using path length correction) at r.t. (24-25° C.). All enzymes and inhibitors were prepared in the assay buffer.

hHAT = target: T2, hHAT (Homo sapiens, UniProt Q09472); assay: Inhibition studies hHAT (HAT Assay Kit); on Inhibition verdict: key: N.I.—not inhibited
T2 construct: purchased Active Motif 56100
T2 sequence (Q09472 1284-1673 limits assumed): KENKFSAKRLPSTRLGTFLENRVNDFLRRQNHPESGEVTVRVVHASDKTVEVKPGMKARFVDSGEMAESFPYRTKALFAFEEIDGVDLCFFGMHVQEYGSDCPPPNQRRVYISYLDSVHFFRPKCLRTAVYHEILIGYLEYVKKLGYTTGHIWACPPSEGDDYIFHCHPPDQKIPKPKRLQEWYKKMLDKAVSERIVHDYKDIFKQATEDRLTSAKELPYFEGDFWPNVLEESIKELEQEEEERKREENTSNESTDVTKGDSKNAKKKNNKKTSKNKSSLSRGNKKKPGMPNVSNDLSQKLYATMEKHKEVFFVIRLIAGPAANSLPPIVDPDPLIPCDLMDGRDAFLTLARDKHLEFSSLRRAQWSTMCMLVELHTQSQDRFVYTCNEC
Protocol: as §1
The inhibition analyses for human histone acetyltransferases (HAT), HDAC hHDAC (human histone deacetylase), hACE-2 (Angiotensin converting enzyme 2) and hHAGH (Hydroxyacylglutathione hydrolase, human Glyoxylase II) were performed using the commercially available HAT Assay Kit (Active Motif, catalogue No. 56100 (2009)), hHDAC (Active Motif, catalogue No. 56200 (2013)), hACE-2 (ACE-2 (R&D Systems) and hHAGH ((R&D Systems).

Chain of PBP6 (dacC) from E. coli (P08506 28-400): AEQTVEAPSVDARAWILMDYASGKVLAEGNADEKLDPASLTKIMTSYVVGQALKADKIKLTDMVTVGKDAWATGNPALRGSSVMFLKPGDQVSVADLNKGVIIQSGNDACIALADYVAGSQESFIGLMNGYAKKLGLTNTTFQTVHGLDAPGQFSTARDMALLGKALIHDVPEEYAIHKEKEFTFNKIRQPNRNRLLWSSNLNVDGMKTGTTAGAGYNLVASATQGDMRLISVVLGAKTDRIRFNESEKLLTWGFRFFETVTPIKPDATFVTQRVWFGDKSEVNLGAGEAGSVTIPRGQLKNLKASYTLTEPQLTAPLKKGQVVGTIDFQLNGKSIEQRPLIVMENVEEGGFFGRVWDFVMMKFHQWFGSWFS
Chain of TEM-1 (P62593 24-286 limits assumed): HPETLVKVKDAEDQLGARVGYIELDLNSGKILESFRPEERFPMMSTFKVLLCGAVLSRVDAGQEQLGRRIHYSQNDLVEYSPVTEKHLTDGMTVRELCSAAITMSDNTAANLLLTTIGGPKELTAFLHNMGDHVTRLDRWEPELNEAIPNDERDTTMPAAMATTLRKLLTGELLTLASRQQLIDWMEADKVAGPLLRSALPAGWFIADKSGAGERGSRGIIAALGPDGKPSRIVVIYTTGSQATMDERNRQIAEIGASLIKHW
T1 sequence (P52699 19-246 limits assumed): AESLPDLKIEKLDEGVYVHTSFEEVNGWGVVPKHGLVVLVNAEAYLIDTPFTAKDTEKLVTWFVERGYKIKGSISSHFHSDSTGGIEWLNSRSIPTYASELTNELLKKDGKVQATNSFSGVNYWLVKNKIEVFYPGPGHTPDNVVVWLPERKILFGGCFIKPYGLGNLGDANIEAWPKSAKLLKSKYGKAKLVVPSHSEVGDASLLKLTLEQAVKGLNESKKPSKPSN

| SMILES | IC50 (IMP-1) [nM] | Inhibition verdict (TEM-1) | remaining activity at 100 µM (TEM-1) [%] | Inhibition verdict (PBP6 (dacC) from E. coli) | remaining activity at 100 µM (PBP6 (dacC) from E. coli) [%] | Inhibition verdict (hHAT) | RA (residual activity) (hHAT) [%] |
| --- | --- | --- | --- | --- | --- | --- | --- |
| CN1CCN(NC(=O)CN2C(=O)C(=Cc3c(Cl)ccc(Cl)c3Cl)SC2=S)CC1 (mixture of isomers) [ML302, N-(4-Methylpiperazin-1-yl)-2-(4-oxo-2-thioxo-5-(2,3,6-trichlorobenzylidene)thiazolidin-3-yl)acetamide] | 175 ± 60 | N.I. | 98.6 ± 7.1 | N.I. | 97.7 ± 3.8 | N.I. | 93 ± 15 |
| O=C(O)C(S)=Cc1c(Cl)ccc(Cl)c1Cl (racemic) [ML302F, 2-Mercapto-3-(2,3,6-trichlorophenyl)acrylic acid] | 2.88 | N.I. | 99.6 ± 3.1 | N.I. | 114 | N.I. | 85 ± 9 |
